{"source": "patent US7160729B2", "about": "“Method for detecting diseases that are associated with defects of cystic fibrosis transmembrane conductance regulator (CFTR) protein” (priority 2002, dated 2007)", "key": {"[1]": {"test_system": "blood cells; CFTR dependent ion channels (SDAC)", "experiment": "Hemolysis test of blood cells in 155 mM KCl medium with sDIDS activation of CFTR dependent ion channels", "format": "cell-based, human", "source_text": "This embodiment of the invention is based on the idea of evoking a lysis of the non-defective blood cells through activation of certain ion channels of the non-defective blood cells, where through anions flow into the non defective cell, for example: Iodide (I—), bromide (Br—), chloride (Cl—), fluoride (F—), gluconate (dextronic acid-anion), rhodanate (SCN—), and taurine. In defective blood cells these CFTR dependent ion channels don't exist or are not activatable. […] Then no positive pressure can build up in the cell; the blood cells with defective CFTR, especially the blood cells of CF Patients are not subject to lysis.\nSince this CFTR dependent ion channel in non-defective blood cells allows the passage of anions such as for example: iodide, bromide, chloride, fluoride, gluconate and rhodanate as well as taurine, the differentiation between defective and non-defective blood cells can also take place in 155 mm solutions that contain iodide, bromide, fluoride, gluconate, rhodanate or taurine.\nThis embodiment is carried out analogously to the example mentioned above, only the blood cells are resuspended in a solution consisting of 155 mM KCl, 10 mM HEPES-Puffer (pH 7.4) and 100 μM sDIDS. This solution is incubated for 60 min under agitation at 37° C. and afterwards the released hemoglobin in the solution is determined.\nThrough the selected conditions of the preferred embodiment of the method according to the invention, chloride ions flow into non-defective blood cells via the anion channel activated by sDIDS into the blood cell. That leads to the accumulation of chloride ions in the blood cell and the water influx associated ion influx leads the good blood cell to burst. The hemolysis can be detected photometrically. This procedure may also be carried out with 10 mM HEPES-buffered solution (pH 7,4), that contains 155 mM iodide, bromide, fluoride, gluconate, or rhodanate as anions."}, "[2]": {"settings": "aqueous solution, room temperature; cited from earlier work"}, "[3]": {"test_system": "blood cells (reticulocytes and young erythrocytes); CFTR dependent ATP release", "experiment": "Hemolysis test of blood cells in 155 mM KCl medium with Gd3+ blockade of CFTR dependent volume regulation", "format": "cell-based, human", "source_text": "A non-defective cell is able to control and regulate its cell volume by interlinking mechanisms during the influx and the efflux of ions and water under physiological conditions. In non-defective blood cells, after application of a 155 mm potassium chloride medium chloride flows into the cell, inter alia through the CFTR. In one embodiment, the invention is based on the idea to inhibit the regulatory volume decrease (RVD) by influencing—for example by blockade—the CFTR-dependent ATP-transporting channels expressed in the cytomembrane. […] This is especially the case with CF blood cells, which due to the CFTR defect have no influx of chloride ions and whose RVD is independent of CFTR. Therefore, no positive pressure can build up in the cell; the blood cells with defective ion channels, especially the blood cells of CF patients undergo no lysis.\nIn patients suffering from mucoviscidosis with a homozygous ΔF508 mutation, the CFTR is not in the cytomembrane. With heterozygous mutations and other mutations than ΔF508, small quantities of functional CFTR can be in the membrane that transport chloride and are involved in volume regulation. The quantity of the functional CFTR molecules in the cytomembrane is inversely proportional to the severity of the illness. […] The contribution of the CFTR dependent RVD to the entire RVD is proportional to the quantity of the functional CFTR molecules within the membrane. […] Because the quantity of the functional CFTR molecules in the cytomembrane is inversely proportional to the severity of the illness in mucoviscodosis patients, the degree of the hemolysis after blockade of the CFTR dependent RVD is a measurement for the severity of the illness.\nIn accordance with the invention, first blood cells are extracted from whole blood by centrifugation. […] This solution is incubated for 60 min under agitation at 37° C. and afterwards the released hemoglobin in the solution is determined. […] The hemolysis is determined by visual examination and is quantified by absorption measurement with a wave length of 546 nm. […]"}, "[4]": {"test_system": "Calu-3 cells (human respiratory tract epithelium cell line)", "experiment": "Patch-clamp, whole-cell configuration", "format": "cell-based", "settings": "Calu-3, whole-cell, -90 to +10 mV", "experimental": "During the experimental development of the test, it is shown that the observed reaction of the red blood cells can not be explained by the mechanisms known in the literature. The blood cell reactions are only explainable by the existence of a channel proteins, which is not yet known in literature.\nIn the whole-cell-configuration of the patch-clamp technology, the transmembrane current of a cell is measured with a pre-determined potential. The endocellular potential was maintained for 0.5 seconds in each case at values between −90 to +10 mV and increased in 10 mV intervals (8.d). The currents arising in a cell with this voltage range are presented in 8a–8c. In 8a, the base current of an untreated cell is shown (control). Through treatment with sDIDS, the conductivity of the cytomembrane of this cell increases together with the current (8b). After sDIDS was removed from the experiment (post control), the conductivity of the cytomembrane of this cell decreases, together with the current (8c). In 8e, the current is plotted against the applied potential, so that the slope of the curve is a measurement of the conductivity."}}, "note": "Entries after “also recorded” stand apart in the source; their conditions may differ.", "data": [{"smiles": "Nc1ccc(CCc2ccc(N=C=S)cc2S(=O)(=O)O)c(S(=O)(=O)[O-])c1.[Na+]", "note": "[4-amino-4′isothiocyanato-dihydrostilbene-2,2′-disulfonic acid, Na^+-salt]", "values": [{"measurement": "behaviour compared with sDIDS", "setting": "[1]", "value": "behaves like sDIDS"}]}, {"smiles": "O=S(=O)([O-])c1cc(N=C=S)ccc1C=Cc1ccc(N=C=S)cc1S(=O)(=O)[O-].[Na+].[Na+]", "note": "[DIDS, 4,4′-diisothiocyanato-stilbene-2,2′-disulfonic acid, sodium salt]", "values": [{"measurement": "time of hydrolysis to 4-amino-4′-isothiocyanatostilbene-2,2′-disulfonic acid", "setting": "[2]", "value": "within a week"}]}, {"smiles": "[Cl][Gd]([Cl])[Cl]", "note": "[Gd^3+, gadolinium chloride]", "values": [{"measurement": "degree of hemolysis after Gd^3+ application", "setting": "[3]; blood of 22 CF patients", "value": "only a slight increase"}, {"measurement": "degree of hemolysis after addition of Gd^3+", "setting": "[3]; blood of 87 healthy volunteers", "value": "unambiguous increase"}, {"measurement": "degree of hemolysis after addition of Gd^3+", "setting": "[3]; umbilical cord blood of 59 newborns", "value": "unambiguous increase"}]}, {"smiles": "CC(=O)Nc1ccc(C=Cc2ccc(N=C=S)cc2S(=O)(=O)O)c(S(=O)(=O)O)c1", "note": "[SITS, 4-acetamido-4′-isothiocyanato-stilbene-2,2′-disulfonic acid]", "values": [{"measurement": "time of hydrolysis to 4-amino-4′-isothiocyanatostilbene-2,2′-disulfonic acid", "setting": "[2]", "value": "within a week"}]}, {"smiles": "Nc1ccc(C=Cc2ccc(N=C=S)cc2S(=O)(=O)O)c(S(=O)(=O)O)c1", "note": "[sDIDS, 4-amino-4′-isothiocyanato-stilbene-2,2′-disulfonic acid]", "values": [{"measurement": "conductivity of the cytomembrane / current after removal (post control)", "setting": "[4]", "value": "decreases"}, {"measurement": "conductivity of the cytomembrane / current during treatment", "setting": "[4]", "value": "reversible activatibility of a conductivity; also recorded: increases"}, {"measurement": "activation of anion conductivity (iodide, bromide, chloride, fluoride, gluconate, rhodanate, taurine)", "setting": "[1]; blood cells of CF patients", "value": "no conductivity"}, {"measurement": "degree of hemolysis after sDIDS application", "setting": "[1]; blood of 48 CF patients", "value": "only a slight increase"}, {"measurement": "degree of hemolysis after addition of sDIDS", "setting": "[1]; blood of 148 healthy volunteers", "value": "unambiguous increase"}, {"measurement": "degree of hemolysis after addition of sDIDS", "setting": "[1]; umbilical cord blood of 82 newborns", "value": "unambiguous increase"}]}]}
